Source: PubChem BioAssay AID1963973 (Molecular Pharmacology Branch, DTP, NCI, 2024)

Tested on: 883617-216-R-J1-PDC tumor spheroids, viability
Test: Anticancer human tumor 883617-216-R-J1-PDC patient-derived bladder carcinoma cell line growth inhibition [PI3K]
Conditions: spheroids with HUVEC and MSC; for IC50: curve of first compound; for viability, T/C: stronger effect = lower value
How it was run: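 We assembled tumor spheroids that included a stromal compartment of HUVEC and MSCs, then exposed them to targeted agents alone and together with PI3K pathway inhibitors. Concentration series descended by half-log from clinically achievable Cmax levels. Viability served as the endpoint.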
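Further: spheroids exposed to agents for 7 days before the viability read.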

CCN1CCN(Cc2ccc(Nc3ncc(F)c(-c4cc(F)c5nc(C)n(C(C)C)c5c4)n3)nc2)CC1 + Cc1nc(NC(=O)N2CCCC2C(N)=O)sc1-c1ccnc(C(C)(C)C(F)(F)F)c1
IC50 (second compound 0.0316 µM): 226 nM | IC50 (second compound 0.1 µM): 26.3 nM | IC50 (second compound 0.316 µM): 4.15 nM | IC50 (second compound 1 µM): < 3.16 nM | IC50 (second compound 3.16 µM): < 3.16 nM | IC50 (second compound 10 µM): < 3.16 nM | viability, T/C (second compound 0.0316 µM, first compound 0.00316 µM): 75.7% | viability, T/C (second compound 0.0316 µM, first compound 0.01 µM): 64.7% | viability, T/C (second compound 0.0316 µM, first compound 0.0316 µM): 64.2% | viability, T/C (second compound 0.0316 µM, first compound 0.1 µM): 53.8% | viability, T/C (second compound 0.0316 µM, first compound 0.316 µM): 49.9% | viability, T/C (second compound 0.0316 µM, first compound 1 µM): 39.6% | viability, T/C (second compound 0.1 µM, first compound 0.00316 µM): 59.7% | viability, T/C (second compound 0.1 µM, first compound 0.01 µM): 56.3% | viability, T/C (second compound 0.1 µM, first compound 0.0316 µM): 46.4% | viability, T/C (second compound 0.1 µM, first compound 0.1 µM): 44.4% | viability, T/C (second compound 0.1 µM, first compound 0.316 µM): 44.3% | viability, T/C (second compound 0.1 µM, first compound 1 µM): 36.3% | viability, T/C (second compound 0.316 µM, first compound 0.00316 µM): 53.3% | viability, T/C (second compound 0.316 µM, first compound 0.01 µM): 39.7% | viability, T/C (second compound 0.316 µM, first compound 0.0316 µM): 37% | viability, T/C (second compound 0.316 µM, first compound 0.1 µM): 31.4% | viability, T/C (second compound 0.316 µM, first compound 0.316 µM): 26.6% | viability, T/C (second compound 0.316 µM, first compound 1 µM): 28.5% | viability, T/C (second compound 1 µM, first compound 0.00316 µM): 29.1% | viability, T/C (second compound 1 µM, first compound 0.01 µM): 25.5% | viability, T/C (second compound 1 µM, first compound 0.0316 µM): 24.1% | viability, T/C (second compound 1 µM, first compound 0.1 µM): 17.1% | viability, T/C (second compound 1 µM, first compound 0.316 µM): 21.4% | viability, T/C (second compound 1 µM, first compound 1 µM): 19.3% | viability, T/C (second compound 3.16 µM, first compound 0.00316 µM): 12.3% | viability, T/C (second compound 3.16 µM, first compound 0.01 µM): 13.7% | viability, T/C (second compound 3.16 µM, first compound 0.0316 µM): 11.8% | viability, T/C (second compound 3.16 µM, first compound 0.1 µM): 10.5% | viability, T/C (second compound 3.16 µM, first compound 0.316 µM): 14.6% | viability, T/C (second compound 3.16 µM, first compound 1 µM): 10.5% | viability, T/C (second compound 10 µM, first compound 0.00316 µM): 7.72% | viability, T/C (second compound 10 µM, first compound 0.01 µM): 5.77% | viability, T/C (second compound 10 µM, first compound 0.0316 µM): 5.3% | viability, T/C (second compound 10 µM, first compound 0.1 µM): 4.95% | viability, T/C (second compound 10 µM, first compound 0.316 µM): 5.02% | viability, T/C (second compound 10 µM, first compound 1 µM): 5.41%
